Our source for the fold change (FC) values is ChEMBL document CHEMBL4813950, “Comparing the efficacy and selectivity of Ck2 inhibitors. A phosphoproteomics approach” (Eur J Med Chem, 2021).

The structures appear in SMILES notation.

The target of experiment [1] is Nucleolar protein 56 (Mus musculus) (UniProt Q9D6Z1). The experiment can be described thus: Inhibition of Nop56 in mouse C2C12 cells assessed as reduction in phospho-sites occupancy at 4 uM after 5 hrs by SILAC based LC-MS/MS analysis relative to control. In kind it is cell-based.
Experiment [2] concerns the target Eukaryotic translation initiation factor 5B (Mus musculus) (UniProt Q05D44). The experiment in a line: Inhibition of eukaryotic translation initiation factor 5B in mouse C2C12 cells assessed as reduction in phospho-sites occupancy at 4 uM after 5 hrs by SILAC based LC-MS/MS analysis relative to control. In kind it is cell-based.
Experiment [3] deals with Host cell factor 1 (Mus musculus) (UniProt Q61191). The experiment can be described thus: Inhibition of host cell factor 1 in mouse C2C12 cells assessed as reduction in phospho-sites occupancy at 4 uM after 5 hrs by SILAC based LC-MS/MS analysis relative to control.
The target of experiment [4] is Bcl-2-associated transcription factor 1 (Mus musculus) (UniProt Q8K019). The experiment can be described thus: Inhibition of Bcl-2-associated transcription factor 1 in mouse C2C12 cells assessed as reduction in phospho-sites occupancy at 4 uM after 5 hrs by SILAC based LC-MS/MS analysis relative to control. The experiment is classed as cell-based.
For experiment [5], the target named is DNA topoisomerase 2-beta (Mus musculus) (UniProt Q64511). The experiment can be described thus: Inhibition of DNA topoisomerase 2-beta in mouse C2C12 cells assessed as reduction in phospho-sites occupancy at 4 uM after 5 hrs by SILAC based LC-MS/MS analysis relative to control. The experiment is classed as cell-based.
For experiment [6], the target named is SWI/SNF-related matrix-associated actin-dependent regulator of chromatin subfamily A containing DEAD/H box 1 (Mus musculus) (UniProt Q04692). The experiment in a line: Inhibition of Smarcad1 in mouse C2C12 cells assessed as reduction in phospho-sites occupancy at 4 uM after 5 hrs by SILAC based LC-MS/MS analysis relative to control. The experiment is classed as cell-based.

The target of experiment [7] is WD repeat and HMG-box DNA-binding protein 1 (Mus musculus) (UniProt P59328). The experiment in a line: Inhibition of Wdhd1 in mouse C2C12 cells assessed as reduction in phospho-sites occupancy at 4 uM after 5 hrs by SILAC based LC-MS/MS analysis relative to control. In kind it is cell-based.
Experiment [8] concerns the target Zinc finger and BTB domain-containing protein 7A (Mus musculus) (UniProt O88939). The experiment can be described thus: Inhibition of Zbtb7a in mouse C2C12 cells assessed as reduction in phospho-sites occupancy at 4 uM after 5 hrs by SILAC based LC-MS/MS analysis relative to control. In kind it is cell-based.
Experiment [9] concerns the target Serine/threonine-protein kinase PAK 1 (Mus musculus) (UniProt O88643). The experiment in a line: Inhibition of Pak1 in mouse C2C12 cells assessed as reduction in phospho-sites occupancy at 4 uM after 5 hrs by SILAC based LC-MS/MS analysis relative to control. The experiment is classed as cell-based.
The target in experiment [10] is DNA replication licensing factor MCM2 (Mus musculus) (UniProt P97310). The experiment in a line: Inhibition of Mcm2 in mouse C2C12 cells assessed as reduction in phospho-sites occupancy at 4 uM after 5 hrs by SILAC based LC-MS/MS analysis relative to control. The experiment is classed as cell-based.
A further experiment deals with Striatin (Mus musculus) (UniProt O55106). The experiment can be described thus: Inhibition of Stria-tin in mouse C2C12 cells assessed as reduction in phospho-sites occupancy at 4 uM after 5 hrs by SILAC based LC-MS/MS analysis relative to control. The experiment is classed as cell-based.
In experiment [11] the target is Serine/arginine repetitive matrix protein 1 (Mus musculus) (UniProt Q52KI8). The experiment can be described thus: Inhibition of Srrm1 in mouse C2C12 cells assessed as reduction in phospho-sites occupancy at 4 uM after 5 hrs by SILAC based LC-MS/MS analysis relative to control. The experiment is classed as cell-based.
The target in experiment [12] is E3 ubiquitin-protein ligase Praja-1 (Mus musculus) (UniProt O55176). The experiment can be described thus: Inhibition of Pja1 in mouse C2C12 cells assessed as reduction in phospho-sites occupancy at 4 uM after 5 hrs by SILAC based LC-MS/MS analysis relative to control. The experiment is classed as cell-based.
Experiment [13] addresses Coiled-coil domain-containing protein 43 (Mus musculus) (UniProt Q9CR29). The experiment in a line: Inhibition of Ccdc43 in mouse C2C12 cells assessed as reduction in phospho-sites occupancy at 4 uM after 5 hrs by SILAC based LC-MS/MS analysis relative to control. In kind it is cell-based.
Experiment [14] deals with Acetyl-CoA carboxylase 1 (Mus musculus) (UniProt Q5SWU9). The experiment in a line: Inhibition of Acetyl-CoA carboxylase 1 in mouse C2C12 cells assessed as reduction in phospho-sites occupancy at 4 uM after 5 hrs by SILAC based LC-MS/MS analysis relative to control. In kind it is cell-based.
Experiment [15] deals with Band 4.1-like protein 1 (Mus musculus) (UniProt Q9Z2H5). The experiment can be described thus: Inhibition of Epb41l1in mouse C2C12 cells assessed as reduction in phospho-sites occupancy at 4 uM after 5 hrs by SILAC based LC-MS/MS analysis relative to control. In kind it is cell-based.
Experiment [16] deals with Protein transport protein Sec31A (Mus musculus) (UniProt Q3UPL0). The experiment can be described thus: Inhibition of Sec31a in mouse C2C12 cells assessed as reduction in phospho-sites occupancy at 4 uM after 5 hrs by SILAC based LC-MS/MS analysis relative to control. The experiment is classed as cell-based.
In experiment [17] the target is Charged multivesicular body protein 3 (Mus musculus) (UniProt Q9CQ10). The experiment can be described thus: Inhibition of Chmp3 in mouse C2C12 cells assessed as reduction in phospho-sites occupancy at 4 uM after 5 hrs by SILAC based LC-MS/MS analysis relative to control. The experiment is classed as cell-based.
The target of experiment [18] is Desmoyokin (Mus musculus) (UniProt Q61484). The experiment in a line: Inhibition of AHNAK in mouse C2C12 cells assessed as reduction in phospho-sites occupancy at 4 uM after 5 hrs by SILAC based LC-MS/MS analysis relative to control. In kind it is cell-based.
For experiment [19], the target named is Dihydropyrimidinase-related protein 3 (Mus musculus) (UniProt Q62188). The experiment can be described thus: Inhibition of Dihydropyrimidinase-related protein 3 in mouse C2C12 cells assessed as reduction in phospho-sites occupancy at 4 uM after 5 hrs by SILAC based LC-MS/MS analysis relative to control. The experiment is classed as cell-based.
In experiment [20] the target is Tight junction protein 2 (Mus musculus) (UniProt Q9Z0U1). The experiment in a line: Inhibition of Tjp2 in mouse C2C12 cells assessed as reduction in phospho-sites occupancy at 4 uM after 5 hrs by SILAC based LC-MS/MS analysis relative to control. In kind it is cell-based.
The target of experiment [21] is Phosducin-like protein 3 (Mus musculus) (UniProt Q8BVF2). The experiment in a line: Inhibition of Phosducin-like protein 3 in mouse C2C12 cells assessed as reduction in phospho-sites occupancy at 4 uM after 5 hrs by SILAC based LC-MS/MS analysis relative to control. In kind it is cell-based.
Experiment [22] deals with Unconventional myosin-XVIIIa (Mus musculus) (UniProt Q9JMH9). The experiment can be described thus: Inhibition of Unconventional myosin-18a in mouse C2C12 cells assessed as reduction in phospho-sites occupancy at 4 uM after 5 hrs by SILAC based LC-MS/MS analysis relative to control. In kind it is cell-based.
Experiment [23] concerns the target E3 ubiquitin-protein ligase NEDD4 (Mus musculus) (UniProt P46935). The experiment in a line: Inhibition of Nedd4 in mouse C2C12 cells assessed as reduction in phospho-sites occupancy at 4 uM after 5 hrs by SILAC based LC-MS/MS analysis relative to control. The experiment is classed as cell-based.

Chain of DNA topoisomerase 2-beta (Mus musculus) (Q64511 whole entry): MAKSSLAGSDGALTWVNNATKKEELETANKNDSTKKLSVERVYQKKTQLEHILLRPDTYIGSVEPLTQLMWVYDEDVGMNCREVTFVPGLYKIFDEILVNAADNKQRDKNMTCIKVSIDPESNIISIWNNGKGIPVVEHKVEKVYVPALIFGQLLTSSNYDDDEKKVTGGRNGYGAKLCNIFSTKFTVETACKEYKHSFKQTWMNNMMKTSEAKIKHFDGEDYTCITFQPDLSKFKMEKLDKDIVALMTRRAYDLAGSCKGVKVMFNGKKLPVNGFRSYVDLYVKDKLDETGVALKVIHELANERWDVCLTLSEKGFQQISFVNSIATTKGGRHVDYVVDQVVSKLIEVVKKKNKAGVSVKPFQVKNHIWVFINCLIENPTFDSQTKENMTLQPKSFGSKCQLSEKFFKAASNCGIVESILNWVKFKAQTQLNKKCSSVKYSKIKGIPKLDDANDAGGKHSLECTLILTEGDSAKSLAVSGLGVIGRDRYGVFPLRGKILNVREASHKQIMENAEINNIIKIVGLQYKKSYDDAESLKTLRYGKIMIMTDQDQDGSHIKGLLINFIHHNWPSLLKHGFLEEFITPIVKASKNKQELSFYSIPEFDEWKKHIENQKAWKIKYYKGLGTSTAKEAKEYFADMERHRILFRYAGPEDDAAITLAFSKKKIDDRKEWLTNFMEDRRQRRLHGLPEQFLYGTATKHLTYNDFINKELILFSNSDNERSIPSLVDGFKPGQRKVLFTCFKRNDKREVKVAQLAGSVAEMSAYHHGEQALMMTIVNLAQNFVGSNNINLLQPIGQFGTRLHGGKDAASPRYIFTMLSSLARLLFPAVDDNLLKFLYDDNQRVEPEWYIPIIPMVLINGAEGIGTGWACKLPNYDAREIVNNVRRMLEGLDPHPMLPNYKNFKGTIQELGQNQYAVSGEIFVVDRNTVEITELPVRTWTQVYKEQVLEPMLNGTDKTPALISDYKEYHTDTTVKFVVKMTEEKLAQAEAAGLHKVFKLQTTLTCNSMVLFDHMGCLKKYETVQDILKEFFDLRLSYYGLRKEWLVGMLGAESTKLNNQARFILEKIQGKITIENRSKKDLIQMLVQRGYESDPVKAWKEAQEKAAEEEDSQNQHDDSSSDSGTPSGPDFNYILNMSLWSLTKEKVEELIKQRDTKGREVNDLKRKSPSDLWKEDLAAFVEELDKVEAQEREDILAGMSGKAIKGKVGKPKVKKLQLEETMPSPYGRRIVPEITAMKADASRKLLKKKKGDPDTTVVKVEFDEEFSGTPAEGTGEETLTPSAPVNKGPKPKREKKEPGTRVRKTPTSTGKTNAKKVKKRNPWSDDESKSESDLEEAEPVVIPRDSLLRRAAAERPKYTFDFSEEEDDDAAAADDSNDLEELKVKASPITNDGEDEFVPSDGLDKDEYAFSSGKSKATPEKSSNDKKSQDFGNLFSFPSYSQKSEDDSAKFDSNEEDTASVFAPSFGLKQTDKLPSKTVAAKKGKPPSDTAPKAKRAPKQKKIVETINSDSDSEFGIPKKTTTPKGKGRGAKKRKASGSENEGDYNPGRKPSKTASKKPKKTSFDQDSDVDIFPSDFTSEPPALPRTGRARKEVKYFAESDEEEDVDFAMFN
Chain of Tight junction protein 2 (Mus musculus) (Q9Z0U1 whole entry): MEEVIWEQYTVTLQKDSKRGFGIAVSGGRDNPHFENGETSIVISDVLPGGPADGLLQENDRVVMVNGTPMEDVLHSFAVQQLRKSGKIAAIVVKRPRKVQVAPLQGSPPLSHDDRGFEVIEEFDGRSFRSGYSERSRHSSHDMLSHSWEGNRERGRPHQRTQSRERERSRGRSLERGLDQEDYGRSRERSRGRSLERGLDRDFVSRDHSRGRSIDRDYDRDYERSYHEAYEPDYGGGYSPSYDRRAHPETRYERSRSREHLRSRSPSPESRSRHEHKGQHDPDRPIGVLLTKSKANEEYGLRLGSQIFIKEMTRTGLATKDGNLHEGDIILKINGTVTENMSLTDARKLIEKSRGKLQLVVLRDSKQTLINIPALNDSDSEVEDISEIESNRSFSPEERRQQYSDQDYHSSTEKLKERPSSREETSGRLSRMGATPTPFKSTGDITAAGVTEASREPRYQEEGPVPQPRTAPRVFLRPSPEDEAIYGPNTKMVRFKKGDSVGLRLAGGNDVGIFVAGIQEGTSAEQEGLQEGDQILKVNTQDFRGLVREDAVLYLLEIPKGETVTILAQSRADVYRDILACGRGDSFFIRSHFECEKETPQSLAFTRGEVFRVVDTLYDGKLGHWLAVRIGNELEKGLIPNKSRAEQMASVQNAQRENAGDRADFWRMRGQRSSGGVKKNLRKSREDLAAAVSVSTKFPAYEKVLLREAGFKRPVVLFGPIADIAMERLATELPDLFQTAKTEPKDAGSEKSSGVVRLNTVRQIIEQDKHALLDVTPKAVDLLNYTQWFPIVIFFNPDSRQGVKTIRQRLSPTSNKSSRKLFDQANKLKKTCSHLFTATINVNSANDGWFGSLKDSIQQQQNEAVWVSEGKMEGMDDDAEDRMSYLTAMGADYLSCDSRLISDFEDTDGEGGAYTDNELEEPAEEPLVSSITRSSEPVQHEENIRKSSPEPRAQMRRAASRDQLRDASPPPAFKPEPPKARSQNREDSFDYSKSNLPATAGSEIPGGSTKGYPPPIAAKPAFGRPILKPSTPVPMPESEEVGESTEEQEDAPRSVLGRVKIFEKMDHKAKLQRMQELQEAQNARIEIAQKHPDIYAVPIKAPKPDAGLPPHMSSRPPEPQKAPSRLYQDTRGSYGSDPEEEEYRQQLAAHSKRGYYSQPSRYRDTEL
Chain of SWI/SNF-related matrix-associated actin-dependent regulator of chromatin subfamily A containing DEAD/H box 1 (Mus musculus) (Q04692 whole entry): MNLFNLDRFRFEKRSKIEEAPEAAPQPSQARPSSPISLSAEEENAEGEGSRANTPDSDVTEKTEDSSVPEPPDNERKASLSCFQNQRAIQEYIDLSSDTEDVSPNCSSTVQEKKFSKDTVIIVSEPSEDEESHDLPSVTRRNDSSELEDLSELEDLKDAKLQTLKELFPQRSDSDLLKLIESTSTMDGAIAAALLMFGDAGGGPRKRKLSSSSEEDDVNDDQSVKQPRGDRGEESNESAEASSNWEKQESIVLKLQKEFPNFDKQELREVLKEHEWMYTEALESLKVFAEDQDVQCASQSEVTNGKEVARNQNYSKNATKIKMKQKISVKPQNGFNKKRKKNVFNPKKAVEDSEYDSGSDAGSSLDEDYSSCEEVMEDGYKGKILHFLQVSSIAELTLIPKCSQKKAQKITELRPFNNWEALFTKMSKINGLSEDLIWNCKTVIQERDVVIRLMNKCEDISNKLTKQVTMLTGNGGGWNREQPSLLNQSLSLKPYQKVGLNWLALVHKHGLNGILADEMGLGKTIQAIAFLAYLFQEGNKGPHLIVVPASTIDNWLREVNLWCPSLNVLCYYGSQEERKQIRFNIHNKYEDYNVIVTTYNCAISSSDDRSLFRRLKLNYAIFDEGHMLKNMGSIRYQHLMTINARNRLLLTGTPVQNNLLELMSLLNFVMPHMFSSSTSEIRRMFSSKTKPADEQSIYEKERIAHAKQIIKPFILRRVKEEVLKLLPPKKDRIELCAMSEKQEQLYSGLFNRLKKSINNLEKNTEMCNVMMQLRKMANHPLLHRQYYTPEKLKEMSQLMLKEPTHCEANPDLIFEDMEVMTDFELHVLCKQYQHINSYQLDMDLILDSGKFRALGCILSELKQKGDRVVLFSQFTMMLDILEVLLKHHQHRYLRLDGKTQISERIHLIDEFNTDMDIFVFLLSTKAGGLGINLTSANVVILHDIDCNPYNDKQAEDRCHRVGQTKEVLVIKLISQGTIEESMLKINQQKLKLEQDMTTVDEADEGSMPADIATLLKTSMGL
Chain of E3 ubiquitin-protein ligase NEDD4 (Mus musculus) (P46935 whole entry): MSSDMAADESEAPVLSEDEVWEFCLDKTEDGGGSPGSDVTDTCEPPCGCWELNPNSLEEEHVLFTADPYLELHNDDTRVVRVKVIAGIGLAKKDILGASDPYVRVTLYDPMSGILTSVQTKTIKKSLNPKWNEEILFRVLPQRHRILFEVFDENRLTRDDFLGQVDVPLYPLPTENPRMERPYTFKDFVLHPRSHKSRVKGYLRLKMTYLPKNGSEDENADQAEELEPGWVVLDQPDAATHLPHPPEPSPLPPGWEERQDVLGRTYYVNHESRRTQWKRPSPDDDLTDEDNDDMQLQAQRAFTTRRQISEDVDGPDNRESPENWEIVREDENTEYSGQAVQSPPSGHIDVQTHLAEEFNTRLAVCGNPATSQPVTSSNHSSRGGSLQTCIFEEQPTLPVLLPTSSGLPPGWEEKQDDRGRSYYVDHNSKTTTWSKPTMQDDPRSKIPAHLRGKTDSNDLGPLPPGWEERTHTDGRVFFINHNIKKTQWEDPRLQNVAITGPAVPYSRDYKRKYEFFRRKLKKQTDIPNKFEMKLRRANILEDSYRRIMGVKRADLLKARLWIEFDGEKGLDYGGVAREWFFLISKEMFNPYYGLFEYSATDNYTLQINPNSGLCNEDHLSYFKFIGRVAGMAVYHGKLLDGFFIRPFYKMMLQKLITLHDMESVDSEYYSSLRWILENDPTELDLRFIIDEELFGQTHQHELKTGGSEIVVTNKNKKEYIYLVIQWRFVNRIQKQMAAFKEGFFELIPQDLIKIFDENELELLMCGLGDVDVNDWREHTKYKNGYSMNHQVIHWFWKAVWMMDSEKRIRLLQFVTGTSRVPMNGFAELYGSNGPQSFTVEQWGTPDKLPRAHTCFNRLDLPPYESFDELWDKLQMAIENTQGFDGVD
Chain of Coiled-coil domain-containing protein 43 (Mus musculus) (Q9CR29 whole entry, the tested form may be a part): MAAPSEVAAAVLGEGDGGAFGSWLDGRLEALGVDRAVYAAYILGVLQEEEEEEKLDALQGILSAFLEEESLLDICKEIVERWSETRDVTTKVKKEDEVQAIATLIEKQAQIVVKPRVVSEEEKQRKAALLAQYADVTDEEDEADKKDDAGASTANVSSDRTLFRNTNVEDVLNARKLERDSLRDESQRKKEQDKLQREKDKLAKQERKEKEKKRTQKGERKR

Turning to `COc1cc(/C=N/n2c(SC)nnc2-c2ccccc2)c(Br)cc1O`, the fold change (FC) stood at 1.5 in experiment [1]; 1.55 in experiment [2]; 1.56 in [3]; 1.58 in [4]; 1.6 in experiment [5]; 1.64 in experiment [6]. In addition, the fold change (FC) in [7] is 1.66; in experiment [8], 1.89; in [9], 1.96; in experiment [10] it was 2.12; on Striatin (Mus musculus), 2.25; in experiment [11] it was 2.36. In addition, the fold change (FC) is 2.53 in experiment [12]; 2.68 in experiment [13]; 2.73 in experiment [14]; 2.85 in [15]; 2.98 in experiment [16]; 3.19 in [17]. Besides, the fold change (FC) in experiment [18] is 3.22; in [19] it was 3.25; in experiment [20], 3.31; in experiment [21], 4.01; in experiment [22], 5.23; in experiment [23], 5.83.
